This note sets out measurements from patent US10342796B2, “Acrylanilide derivative, preparation method, and applications thereof in pharmacy” (Ancureall Pharmaceutical (Shanghai) Co., Ltd., priority 2015, dated 2019).

Like-named read-outs stand apart in the source and are kept apart here.

One assay deals with Calu-3 (Her2 amp). The assay can be described thus: Growth inhibition GI50 in vitro (CCK8/MTT, 72 h). Format: cell-based. Particulars: Homo sapiens, Calu-3; Table 16; 1000 nM to 0.03 nM serial dilution; read-out: GI50 Calu3 (HER2 amp). As for the experimental part:
(§1) Human lung adenocarcinoma cell line Calu-3 (ATCC) was cultured with 1×MEM complete medium (10% FBS, 1% double-antibiotics, 1% NEAA (Gibco), 2 mM glutamine and 1 mM of sodium pyruvate). Human breast cancer cell line SK-BR-3 was cultured with McCOY'S5A complete medium (10% FBS). Human colon cancer cell line SNU1040 (HER2 V777M positive) (ATCC) and human bronchoalveolar adenocarcinoma cell line NCI-H1781 (expressing HER2 exon 20 G776VC mutation) (ATCC) were cultured with 1×RPMI1640 complete medium (10% FBS), respectively.
(§2) The suspension cells were collected by centrifugation. The supernatant was discard and the cell pellet was resuspended and counted. Different cell concentrations (5˜10×10^4 cells/mL) were prepared according to the growth cycle of each cell line and then seeded on a 96-well plate (Corning), 100 μL/well. The cells were incubated over night at 37° C., 5% CO2. The compounds were added to the cells on the second day with 2 wells in parallel. The final concentration of organic solvent shall not exceed 1%. The cells were continually incubated for 72 h, and then subjected to MTT assay.
(§3) The present compounds and the reference compounds were dissolved with DMSO (Sigma), respectively. […] The storage concentration of compounds was 10 mM and kept at −20° C. They were diluted by 2 times or 10 times with serial dilution before using.
(§4) Dojindo CCK8 reagent kit was used as MTT assay. […] FC meter was used as microplate reader.
Adherent cell culture medium was discard and immediately replaced with fresh prepared medium which contains 10% CCK8 reagent (100 μL/well). For the suspension cells, CCK8 was directly added to 10% of the final concentration. The cells were continually incubated for 1˜4 h. When the color of control wells turned to dark yellow, the absorption value was measured at OD450 nm. The cell growth rate was calculated according to the following formula: cell growth rate (%)=100*(T−T0)/(C−T0), T=optical density of drug treatment cell well—optical density of blank control well; T0=optical density of cell well before drug treatment—optical density of blank control well; C=optical density of cell well of solvent control group—optical density of blank control well. […] The experiment was independently repeated 1˜3 times, and subject to biological statistical analysis.

In assay [1] the test system is HER2/ErbB2 amplified cell line N87. The assay can be described thus: In vivo tumor growth inhibition, xenograft. Details: species or system Bab/c nude mice. Particulars: Mus musculus, po, 456 h, 25 mg/kg intragastric once daily, day 19, read-out: TGI (%). The text has this: (§5) Tumor xenograft models of immunodeficient mice are an effective tool to test the antitumor activity of the compound in vivo. Generally, the effectiveness of human tumor cell xenograft is positively correlated with the clinical treatment of human tumor. Bab/c immunodeficient mouse is one of the most commonly used xenograft animals with human tumor cells. In order to test whether the present compounds can inhibit the in vivo growth of the tumor cells expressing EGFR mutantion or HER2/ErbB2 overexpression, H1975, PC-9 and NCI-N87 cell lines were used in the experiments. When H1975, PC-9 and NCI-N87 cells were in growth logarithmic phase, they were digested with pancreatin. An appropriate amount of 1×RPMI1640 culture medium (serum-free) was added to stop digestion. The cells were collected to a 50 ml centrifuge tube (Corning), and centrifuged at 1700 rm for 3 min. The supernatant was discard, then the cells were suspended with 1×RPMI1640 culture medium and count the number. […] cells/mL was prepared and then placed on ice. 5˜10×10^6 (0.2 ml) cells were inoculated subcutaneously on the right side of the back of 6˜8 week old female Bab/c nude mice (about 20 g in weight). When the tumor average volume growed to 100˜200 mm^3, the mice were randomly divide into groups (3-6 mice per group), and marked by ear pierced tags and weighted. The test compounds and the reference compound (with a purity over 99% and individual impurity not higher than 0.2%) were formulated to emulsion suspension with CM (30% polyethylene glycol 400, 0.5% Tween-80 and 2.5% propylene glycol) respectively. Intragastric administration was continued once daily at a dosage of 25 mg/kg (0.1 ml/10 g mouse). The tumor was measured 3 times per week. When the average volume of the tumor in CM control group was up to 1500 mm^3 or after administration for 30 days, the experiment was ended.
(§6) The volume of tumor (V) was calculated as V=½*a*b^2 (a represents length of tumors, b represents width of tumors). Tumor growth inhibition (TGI) was calculated as: TGI (%)=100−(VT−VT0)/(VC−VC0)*100%; where VT0 and VT are the tumor volumes of the beginning and finish days of dosed groups; and VC0 and VC are the tumor volumes of the beginning and finish days for the control group, respectively.

For the next assay, the system named is N87 (HER2 Amp). In words: Growth inhibition GI50 in vitro (CCK8/MTT, 72 h). Format: cell-based, human. Particulars: Homo sapiens.
The subject of assay [2] is NCI-H1781 (HER2 exon 20 G776VC mutation). In words: Growth inhibition GI50 in vitro (CCK8/MTT, 72 h). Type of assay: cell-based. Particulars: Homo sapiens, NCI-H1781; Table 16; 1000 nM to 0.03 nM serial dilution; read-out: GI50 H1781 (HER2 G776VC). Here is the method:
as §1
as §2, with “Adherent cells were digested with 0.25% pancreatin-EDTA (Gibco). The suspension” for “The suspension”
as §3, §4
(§7) Adherent cell culture medium was discard and immediately replaced with fresh prepared medium which contains 10% CCK8 reagent (100 μL/well). For the suspension cells, CCK8 was directly added to 10% of the final concentration. The cells were continually incubated for 1˜4 h. When the color of control wells turned to dark yellow, the absorption value was measured at OD450 nm. The cell growth rate was calculated according to the following formula: cell growth rate (%)=100*(T−T0)/(C−T0), T=optical density of drug treatment cell well—optical density of blank control well; T0=optical density of cell well before drug treatment—optical density of blank control well; C=optical density of cell well of solvent control group—optical density of blank control well. The concentration value of 50% inhibition of cell growth (GI50) was calculated. The experiment was independently repeated 1˜3 times, and subject to biological statistical analysis.
(§8) Furthermore, the present compounds (99, 136, 205, 211, 212, 213, 216, 229, 230, 231, 232, 233 and 236) were selected to carry out growth inhibition test for HER2/ERBB2 gene amplified or high expressed or mutant tumor cells. Afatinib and AZD9291 were used for references as second- and third-generation inhibitors of EGFR.
(§9) Each compound started at 1000 nM as an initial concentration and was diluted by 2 times with serial dilution to 0.03 nM. The GI50 value of each compound was calculated according to Test Example 1.3.

The test system of assay [3] is SNU1040 (HER2 V777M positive). The assay can be described thus: Growth inhibition GI50 in vitro (CCK8/MTT, 72 h). Type of assay: cell-based. Particulars: Homo sapiens; Table 16; 1000 nM to 0.03 nM serial dilution; read-out: GI50 SNU-1040 (HER2 V777M). Here is the method: as §1
as §2, with “Adherent cells were digested with 0.25% pancreatin-EDTA (Gibco). The suspension” for “The suspension”
as §3, §4, §7, §8, §9

The subject of another assay is SK-BR-3 (Her2 amp). In words: Growth inhibition GI50 in vitro (CCK8/MTT, 72 h). Type of assay: cell-based, human. Particulars: Homo sapiens, SK-BR-3; HER2 positive cell line; range of GI50; read-out: GI50 SK-BR-3.
The test system of the next assay is H1975 tumor cells. The assay can be described thus: In vivo tumor growth inhibition, xenograft. Particulars: Mus musculus, NCI-H1975, po, 456 h; 25 mg/kg intragastric once daily, day 19; read-out: TGI (%) H1975. Set-up: species or system Bab/c nude mice.
From the text: as §5, §6

The next assay deals with PC-9 tumor cells. The assay can be described thus: In vivo tumor growth inhibition, xenograft. Details: species or system Bab/c nude mice. Particulars: Mus musculus, po, 456 h; 25 mg/kg intragastric once daily, day 19; read-out: TGI (%) PC-9.
From the text: as §5, §6

For the next assay, the system named is HCC827 (EGFR dE746-A750). The assay can be described thus: Growth inhibition GI50 in vitro (CCK8/MTT, 72 h). Format: cell-based, human. Particulars: Homo sapiens, HCC827; EGFR mutant cell line; range of GI50; read-out: GI50 HCC827.
For assay [4], the system named is PC-9ER (EGFR delE746-A750/T790M). The assay can be described thus: Growth inhibition GI50 in vitro (CCK8/MTT, 72 h). Type of assay: cell-based, human. Particulars: Homo sapiens, PC-9/ER; EGFR mutant cell line; range of GI50; read-out: GI50 PC9ER.
Another assay has as its system PC-9 (EGFR dE746-A750). In words: Growth inhibition GI50 in vitro (CCK8/MTT, 72 h). Particulars: Homo sapiens; EGFR mutant cell line; range of GI50; read-out: GI50 PC-9. Format: cell-based, human.
The subject of the next assay is H1975 (EGFR L858R/T790M). The assay can be described thus: Growth inhibition GI50 in vitro (CCK8/MTT, 72 h). Type of assay: cell-based, human. Particulars: Homo sapiens, NCI-H1975; EGFR mutant cell line; range of GI50; read-out: GI50 H1975.
Assay [5] relates to H1299 (EGFR wt, Nras Q61K). In words: Growth inhibition GI50 in vitro (CCK8/MTT, 72 h). Format: cell-based, human. Particulars: Homo sapiens, NCI-H1299; EGFR wild type cell line; range of GI50; read-out: GI50 H1299.
The next assay concerns A549 (EGFR WT). The assay can be described thus: Growth inhibition GI50 in vitro (CCK8/MTT, 72 h). Type of assay: cell-based, human. Particulars: Homo sapiens, A549; EGFR wild type cell line; range of GI50; read-out: GI50 A549.
The test system of assay [6] is H460 (EGFR wt, Kras G61H). In words: Growth inhibition GI50 in vitro (CCK8/MTT, 72 h). Particulars: Homo sapiens, NCI-H460; EGFR wild type cell line; range of GI50; read-out: GI50 H460. Format: cell-based, human.
The test system of assay [7] is A431 (EGFR WT, amplification and high expression). In words: Growth inhibition GI50 in vitro (CCK8/MTT, 72 h). Type of assay: cell-based, human. Particulars: Homo sapiens, A-431; EGFR wild type cell line; range of GI50; read-out: GI50 A431.
The next assay has as its system AU565 (Her2 amp). The assay can be described thus: Growth inhibition GI50 in vitro (CCK8/MTT, 72 h). Format: cell-based, human. Particulars: Homo sapiens, AU565; HER2 positive cell line; range of GI50; read-out: GI50 AU-565.

With `CN(C)C/C=C/C(=O)Nc1cc2c(Nc3ccc(F)c(Cl)c3)ncnc2cc1O[C@H]1CCOC1` [Afatinib, reference compound], the GI50 with Calu-3 (Her2 amp) is 2.62 nM; with N87 (HER2 Amp) (Table 16, 1000 nM to 0.03 nM serial dilution, read-out: GI50 N87 (HER2 amp)), 1.25 nM; in assay [2] it was 1.17 nM; in [3], 79.1 nM. Besides, in assay [1], the inhibition in vivo at 25 mg/kg was found to be 98.3%.
On to `C=CC(=O)Nc1cc(Nc2cc(-c3cn(C)c4ccccc34)ncn2)c(OC)cc1N1CCC(N2CCN(C)CC2)CC1` [Compound 176, N-(4-methoxyl-5-(6-(1-methyl-1H-indol-3-yl)-pyrimidin-4-ylamino)-2-(4-(4-methylpiperazin-1-yl)-piperidin-1-yl)-phenyl)-acrylamide], for which the GI50 with SK-BR-3 (Her2 amp) was 10 to 100 nM; in the assay on N87 (HER2 Amp) (HER2 positive cell line, range of GI50, read-out: GI50 N87), 10 to 100 nM; with HCC827 (EGFR dE746-A750), less than 10 nM; in assay [4], 10 to 100 nM; in the assay on PC-9 (EGFR dE746-A750), less than 10 nM; with H1975 (EGFR L858R/T790M), 10 to 100 nM. For the same compound, the GI50 is greater than 1000 nM in [5]; greater than 1000 nM with A549 (EGFR WT); greater than 1000 nM in [6]; 100 to 1000 nM in assay [7]; 100 to 1000 nM with AU565 (Her2 amp). Besides, the inhibition in vivo at 25 mg/kg came to 98.2% in the assay with H1975 tumor cells and 98.6% with PC-9 tumor cells.
